“Also recorded” adds a separate entry of the source.
Key:
Assay type in all cases: cell-based, human
[1] = tested on: conjugation of NEDD8 to target proteins; assay: Western blotting for conjugation of NEDD8 to target proteins in cortical neurons; settings: 1 μM; postmitotic cortical neurons; 3 hours or 7 days of treatment
Description: (§1) Western blotting. Samples for western blotting were harvested, pelleted and snap frozen. Cell pellets were resuspended in RIPA buffer supplemented with Halt protease and phosphatase inhibitors (ThermoFisher) followed by centrifugation to clarify the sample. Protein concentration was quantified using the Precision Red Advanced Protein Assay according to manufacturer's instructions and equal amounts of protein were mixed with NuPAGE LDS Sample Buffer and NuPAGE Sample Reducing Agent and heated to 72 degrees for 10 mins. A total of 5-20 μg of protein was separated on NuPAGE Novex 4-12% Bis Tris gels and transferred by wet blotting onto PVDF membranes. Membranes were blocked in 5% milk protein or 5% BSA when probing for the phospho-Tau. Primary antibodies used for this study were: β-ACTIN (Sigma, A2228-100UL), BAG1 (Santa Cruz, sc-33704), BAG3 (Abcam, ab47124), Cas9 (Cell Signaling Technologies; 14697S), GAPDH-HRP (Santa Cruz Biotech, sc-47724 HRP), LMNB1 (Abcam, ab16048), NAE1(Cell Signaling Technologies, 14321S), NEDD8 (Abcam, ab81264), p21 (Cell Signaling Technologies, 2947), TAU (Dako, A0024), p-TAU(S202/T205) (Thermo Fisher; MN1020), UBA3 (Abcam, ab124728). Band intensity was visualized using BioRad ChemiDoc XRS+molecular imager. After imaging the membrane was re-probed with either GAPDH or β-ACTIN antibodies for normalization. Band intensity was quantified using Fiji.

[2] = tested on: neurons with the PSEN^M146V/M146V mutation; assay: Viability of neurons with the PSEN^M146V/M146V mutation; settings: PSEN^M146V/M146V neurons (FIG. 25B)
[3] = tested on: H9-Nurr1^GFP neurons having the LRRK2 G2019S mutation; assay: Viability of neurons with the LRRK2 G2019S mutation; settings: LRRK2 G2019S neurons (FIG. 26C)
[4] = tested on: APP^swe/swe cortical neurons; assay: pATM immunofluorescence (DNA damage); settings: 1 μM for 7 days
Protocol: Immunocytochemistry. Cells were fixed in 4% paraformaldehyde for 10 mins then permeabilized in PBS+0.3% Triton. Cells were blocked in 5% donkey or goat serum for 1 h. Primary antibody incubation was performed overnight. Primary antibodies used in this study were: p-ATM (S1981) (Thermo Fisher; MA1-2020), Cas9 (Cell Signaling Technologies; 14697S), COL1A1 (R&D; AF6220), FOXG1 (Takara; M227), Ki67 (Dako; M7240), MAP2 (Thermo Fisher; PA1-16751), NANOG (Cell Signaling Technologies; 4903S), PAX6 (Biolegend; 901301), TAU (Thermo Fisher; MN1000), p-TAU (S235) (Thermo Fisher; PA5-104785). For all image quantifications images were taken from 3 individual wells and averaged. This was repeated three times with neurons from independent differentiations. Volocity was used to count MAP2+ and Ki67+ cells with pyknotic. DAPI^bright nuclei excluded from the cell count. FIJI was used for TAU and pATM quantifications.

[5] = tested on: wild-type or APP^swe/swe neurons; assay: Flow cytometry for aging hallmarks (proteostasis, heterochromatin, senescence)
Protocol: Flow Cytometry. Neuronal cultures were dissociated to single cell suspensions using Accutase (Innovative Cell Technologies) supplemented with Neuron Isolation Enzyme for Pierce™ (Thermo 88285) solution at 1:50. Single cell suspensions were stained with Zombie UV™ Fixable Viability Kit (Biolegend 423107) at 1:2500 in PBS for 15 minutes at room temperature, followed by fixation in 4% Paraformaldehyde for 10 minutes (4° C.). Cells stained with CellEvent Senescence Green (Thermo C10840) were done so at 1:250 in assay buffer for 2 hours at 37° C. For intracellular probes, cells were permeabilized in 0.5% triton-x for 10 minutes (4° C.), and blocked in 5% BSA for 10 minutes (4° C.). Cells were stained with H3k9me3-PE antibody (Cell Signaling Technologies #13969S) diluted 1:200, and Proteostat (Enzo Life Sciences ENZ-51023-KP050) diluted 1:2500, in 5% BSA in PBS for 30 minutes at 4° C. Cells were analyzed on the Cytek Aurora Flow Cytometer. Experiments were repeated with cells from 3 independent differentiations.

[6] = tested on: APP^swe/swe neurons; assay: Senescence associated β-gal, brightfield images; settings: 1 μM for 10 days
[7] = tested on: APP^swe/swe neurons; assay: Western blotting for p21, LMNB1, BAG1 and BAG3; settings: 1 μM from DIV50-DIV60
Description: as §1

[8] = tested on: APP^swe/swe neurons; assay: Western blotting for pTau(S202/T205) and total Tau, APP^swe/swe neurons
Description: as §1

[9] = tested on: wild-type neurons; assay: Western blotting for pTau(S202/T205) and total Tau, wild-type neurons; settings: wild-type neurons (FIG. 23C)
Description: as §1

[10] = tested on: AD neurons; assay: Nuclear roundness and nuclear area of AD neurons

NS(=O)(=O)OC[C@@H]1C[C@@H](n2ccc3c(N[C@H]4CCc5ccccc54)ncnc32)C[C@@H]1O [MLN4924, [(1S,2S,4R)-4-[4-[[(1S)-2,3-Dihydro-1H-inden-1-yl]amino]-7H-pyrrolo[2,3-d]pyrimidin-7-yl]-2-hydroxycyclopentyl]methyl sulfamic acid ester]
conjugation of NEDD8 to target proteins [1]: effectively block the conjugation of NEDD8 to target proteins; also recorded: blocks conjugation of NEDD8 to target proteins | viability [2]: reduced viability | viability [3]: reduced viability | pATM induction (DNA damage) [4]: pATM induction | cellular hallmarks of age ([5]; 1 μM for 7 or 10 days, AD-PSC (APP^swe/swe) cortical neurons (FIGS. 3A-3E)): induces cellular hallmarks of age | cellular age (protein aggregation, senescence, histone methylation) ([5]; wild-type or APP^swe/swe neurons, versus DMSO (FIG. 27)): induces cellular age in both wild-type and disease backgrounds | β-gal positive neurons (senescence) [6]: induction of showing β-gal positive | cellular senescence (p21, LAMNB1 Western blotting) [7]: increased cellular senescence | proteostasis (BAG1, BAG3 Western blotting) [7]: loss of proteostasis | changes in phosphorylated Tau ([8]; 1 μM from DIV50-DIV60, App^swe/swe versus wild-type neurons (FIGS. 4C-4F)): AD-specific changes in phosphorylated Tau | high molecular weight form of pTAU(AT8) ([8]; AD neurons (FIG. 23A-23B)): increase in the high molecular weight form | major form of pTAU(AT8) ([8]; AD neurons (FIG. 23A-23B)): decrease in major form of pTAU(AT8) | change in pTAU(AT8) forms [9]: did not show the change | nuclear roundness (nuclear lamina defects) ([10]; AD neurons (FIG. 28A)): decreased nuclear roundness | nuclear area (cellular senescence) ([10]; AD neurons (FIG. 28B)): increased nuclear area

Source: patent US20250085272A1, “METHODS AND SYSTEMS FOR MODULATING AND MODELING AGING AND NEURODEGENERATION DISEASES” (MEMORIAL SLOAN-KETTERING CANCER CENTER, priority 2022, published 2025)
